We go through four compounds from patent US5527801A, “Ameliorant for blood lipid metabolism” (Dainippon Pharmaceutical Co., Ltd., priority 1991, dated 1996).

Read-outs that look alike come from different tables or passages of the source. Where only a bound is given, the exact number is not on record here.

Usually LD50 stands for the dose expected to kill half of the subjects tested. Higher therefore signals lower toxicity.

For data set [1], the system named is total cholesterol in plasma. In words: Total cholesterol in plasma of rabbits fed high fat feed. The following applies: for Total cholesterol concentration in plasma: ± standard error; for Total cholesterol concentration, effect in words: vs High fat feed + Vehicle, up to 9 weeks. Type of data set: in vivo, male white Japanese rabbits. How it is done: (§1) In this experiment, male white Japanese rabbits (5 to 7 rabbits/group) were used. The high fat feed was prepared by adding 1% cholesterol and 6% coconut oil to the solid feed (Oriental Yeast Co., Ltd., RC-4).
(§2) Separately, in the normal feed group, each rabbit was given normal solid feed (RC-4) (100 g/day) and a vehicle (tragacanth solution) orally.

Data set [2] has as its system free cholesterol in plasma. Nature of the data set: Free cholesterol in plasma of rabbits fed high fat feed. In kind it is in vivo, male white Japanese rabbits. The following applies: for Free cholesterol concentration in plasma: ± standard error; for Free cholesterol concentration, effect in words: vs High fat feed + Vehicle, up to 9 weeks. How it is done:
as §1, §2

The subject of data set [3] is phospholipid in plasma. In words: Phospholipid in plasma of rabbits fed high fat feed. In kind it is in vivo, male white Japanese rabbits. The following applies: for Phospholipid concentration in plasma: ± standard error; for Phospholipid concentration, effect in words: vs High fat feed + Vehicle, up to 9 weeks. How it is done: as §1, §2
In data set [4] the test system is cholesterol amount in aortas. In words: Cholesterol amount in the aorta of rabbits fed high fat feed (atherosclerosis). Type of data set: in vivo, male white Japanese rabbits. The following applies: 9 weeks; for Cholesterol amount in aortas: high fat feed, oral once a day: maleate of Compound A 30, diltiazem 50, prazosin 3 mg/kg/day; for Cholesterol amount in the aorta, effect in words: vs High fat feed + Vehicle. Here is the method: as §1, §2
(§3) Nine weeks after the beginning of administration, each rabbit was killed with bleeding under pentobarbital-anesthesia, and the aorta was taken out. The cholesterol amount in the aorta was determined, and the lipid deposition at the aortic inner wall was stained and the area of the stained parts was measured.

Data set [5] has as its system lipid deposition at aortic inner wall. Nature of the data set: Area of lipid deposition at aortic inner wall of rabbits fed high fat feed (atherosclerosis). Type of data set: in vivo, male white Japanese rabbits. The following applies: 9 weeks; for Area of lipid deposition at aortic inner wall: high fat feed, percentage of whole area of aortic inner wall, oral once a day: maleate of Compound A 30, diltiazem 50, prazosin 3 mg/kg/day; for Area of lipid deposition at the aortic inner wall, effect in words: vs High fat feed + Vehicle. Here is the method: as §1, §2, §3

The conditions of data set [6]: JP Kokoku 58341/1991 (U.S. Pat. No. 4,749,703); cited from earlier work.
The test system of data set [7] is α1-receptor. The following applies: Jpn. J. Pharmacol., 52 (suppl. 1), 212 (1990); cited from earlier work.
Data set [8] in a line: Hypotensive activity at the dosages of the experiment. In kind it is in vivo. The following applies: at 30 (maleate of Compound A), 50 (diltiazem), 3 (prazosin) mg/kg/day, oral.
Data set [9] relates to atherosclerosis. The following applies: cited from earlier work.
Data set [10] in a line: Acute toxicity (LD50), oral, mice. The following applies: mouse, in vivo.
For data set [11], the system named is rats. The following applies: rat, in vivo.
The test system of data set [12] is beagles. The following applies: dog, in vivo.
In data set [13] the test system is blood lipid. The following applies: cited from earlier work.
The mark [14] stands for this setting: week 0, high fat feed, before treatment.
The mark [15] stands for this setting: week 6, high fat feed, oral once a day: maleate of Compound A 30, diltiazem 50, prazosin 3 mg/kg/day.
[16] abbreviates: week 8, high fat feed, oral once a day: maleate of Compound A 30, diltiazem 50, prazosin 3 mg/kg/day.
Setting [17] is: week 9, high fat feed, oral once a day: maleate of Compound A 30, diltiazem 50, prazosin 3 mg/kg/day.

Take `O=C(CCCN1CCN(c2ccc(F)cc2)CC1)NC1c2ccccc2CSc2ccccc21` (stereo not shown) [Compound A]: the “Total cholesterol concentration in plasma” value in data set [1] (setting [14]) worked out at 1161 ± 110 mg/dL; in data set [1] (setting [15]) it was 1595 ± 136 mg/dL; in data set [1] (setting [16]) it was 1074 ± 162 mg/dL; in data set [1] (setting [17]), 1070 mg/dL. For the same compound, the “Free cholesterol concentration in plasma” value in [2] (setting [14]) came out at 346 ± 34 mg/dL; in data set [2] (setting [15]) it was 503 ± 43 mg/dL; in [2] (setting [16]), 330 ± 56 mg/dL; in data set [2] (setting [17]), 306 mg/dL. For the same compound, the “Phospholipid concentration in plasma” value in data set [3] (setting [14]) was found to be 452 ± 42 mg/dL; in [3] (setting [15]), 678 ± 70 mg/dL; in data set [3] (setting [16]), 529 ± 66 mg/dL; in data set [3] (setting [17]) it was 489 mg/dL. Besides, the “Cholesterol amount in aortas” value in data set [4] was 234.4 ± 39.4 mg/kg of protein. Also, the “Area of lipid deposition at aortic inner wall” value (“Area … at aortic inner wall” for short) in data set [5] is 35.2%. For the same compound, in [6], the calcium antagonistic activity entry is given as “potent calcium antagonistic activity”. The α1-receptor blocking activity entry in data set [7] is reported as “have α1 -receptor blocking activity”.
As to `COc1ccc([C@@H]2Sc3ccccc3N(CCN(C)C)C(=O)[C@@H]2OC(C)=O)cc1` [diltiazem], the “Total cholesterol concentration, effect in words” value in [1] is recorded as “no decrease”. Besides, the “Total cholesterol concentration in plasma” value in data set [1] (setting [14]) was found to be 1127 ± 202 mg/dL; in data set [1] (setting [15]), 2297 ± 127 mg/dL; in [1] (setting [16]), 2106 ± 293 mg/dL; in [1] (setting [17]), 1626 mg/dL. In addition, the “Free cholesterol concentration, effect in words” value in data set [2] is recorded as “no decrease”. Moreover, the “Free cholesterol concentration in plasma” value stood at 318 ± 57 mg/dL in data set [2] (setting [14]), 660 ± 42 mg/dL in data set [2] (setting [15]), 673 ± 96 mg/dL in [2] (setting [16]) and 486 mg/dL in data set [2] (setting [17]). Moreover, the “Phospholipid concentration, effect in words” value in data set [3] is “no decrease”. Moreover, the “Phospholipid concentration in plasma” value came out at 454 ± 72 mg/dL in data set [3] (setting [14]), 931 ± 50 mg/dL in [3] (setting [15]), 825 ± 116 mg/dL in [3] (setting [16]) and 718 mg/dL in data set [3] (setting [17]). In [4], the “Cholesterol amount in aortas” value is reported as 509.3 ± 240.1 mg/kg of protein. Also, the “Cholesterol amount in the aorta, effect in words” value (“Cholesterol amount in the aorta” below) in data set [4] is reported as “not decreased at all”. In data set [5], the “Area … at aortic inner wall” value was found to be 45.2%. Also, in data set [5], the “Area of lipid deposition at the aortic inner wall, effect in words” value (“Area of lipid deposition … in words” for short) is “not decreased at all”. Besides, the hypotensive activity entry in [8] is “show hypotensive activity”. For the same compound, the atherosclerosis inhibitory activity result in [9] (Atherosclerosis, 51, 343-344 (1984)) is listed as “no inhibitory activity”; in data set [9] (rabbits, Lab. Invest. 49, 154-158 (1983)), “shows the atherosclerosis inhibitory activity”.
`O=C(CCCN1CCN(c2ccc(F)cc2)CC1)NC1c2ccccc2CSc2ccccc21` (stereo not shown) [maleate of Compound A]: the “Total cholesterol concentration, effect in words” value in [1] is given as “significantly decreased from 8 weeks after the beginning of administration”. For the same compound, in [2], the “Free cholesterol concentration, effect in words” value is “significantly decreased from 6 weeks after the beginning of the administration”. In addition, in data set [3], the “Phospholipid concentration, effect in words” value is reported as “significantly decreased from 6 weeks after the beginning of the administration”. For the same compound, the “Cholesterol amount in the aorta” value in data set [4] was “significantly decreased”. Besides, the “Area of lipid deposition … in words” value in data set [5] is on record as “also decreased”. In data set [10], this compound came in with an LD50 greater than 500 mg/kg. The hypotensive activity entry in data set [8] is reported as “show hypotensive activity”. Also, the “toxicity by prolonged administration” value in data set [11] and in data set [12] was “no significant toxicity was observed” throughout.
In the case of `COc1cc2nc(N3CCN(C(=O)c4ccco4)CC3)nc(N)c2cc1OC` [prazosin], the “Total cholesterol concentration, effect in words” value in [1] is recorded as “no decrease”. The “Total cholesterol concentration in plasma” value in [1] (setting [14]) was 1201 ± 45 mg/dL; in [1] (setting [15]), 3048 ± 236 mg/dL; in data set [1] (setting [16]) it was 2082 ± 194 mg/dL; in data set [1] (setting [17]), 1999 mg/dL. For the same compound, the “Free cholesterol concentration, effect in words” value in data set [2] is “no decrease”. Moreover, the “Free cholesterol concentration in plasma” value in data set [2] (setting [14]) came to 368 ± 22 mg/dL; in [2] (setting [15]), 916 ± 69 mg/dL; in data set [2] (setting [16]) it was 740 ± 96 mg/dL; in [2] (setting [17]) it was 584 mg/dL. Also, the “Phospholipid concentration, effect in words” value in data set [3] is given as “no decrease”. Besides, the “Phospholipid concentration in plasma” value in [3] (setting [14]) amounted to 474 ± 22 mg/dL; in data set [3] (setting [15]), 1240 ± 94 mg/dL; in [3] (setting [16]), 937 ± 112 mg/dL; in [3] (setting [17]) it was 803 mg/dL. Moreover, the “Cholesterol amount in aortas” value in [4] is 372.8 ± 63.9 mg/kg of protein. In data set [4], the “Cholesterol amount in the aorta” value is given as “not decreased at all”. Further, the “Area … at aortic inner wall” value in data set [5] worked out at 56.7%. In [5], the “Area of lipid deposition … in words” value is given as “not decreased at all”. Also, the hypotensive activity result in [8] is “show hypotensive activity”. Also, the α1-receptor blocking activity result in data set [7] is recorded as “having α1 -receptor blocking activity”. In addition, the “blood lipid decreasing activity” value was “no blood lipid decreasing activity” in data set [13] (Prog. Medicine 3, 1517-1525 (1983)) and “shows blood lipid decreasing activity” in data set [13] (human being, Am. J. Medicine, 76 (suppl. 2A), 79-84 (1984)).
